Measured values: patent US6428804B1, “Intra-articular preparation for the treatment of arthropathy” (SSP Co., Ltd., priority 1997, dated 2002)

Key:
[1] = Pharmacokinetic test of DFNa-containing microcapsules (Test 6); type: in vivo; settings: rabbit knee joint, 1 mg in terms of DFNa, solution in physiological saline (FIG. 9)
Method: The DFNa-containing microcapsules (average particle size: 67.9 μm) obtained in Example 25 were suspended in the same injection-grade dispersion medium as that employed in Test 1. The resulting suspension was injected in a dose of 10 mg in terms of DFNa into a knee joint of a rabbit, and the amount of DF in the synovium and its peripheral tissue was measured periodically. As a control, a solution of DFNa in a physiological saline was injected in a dose of 1 mg in terms of DFNa, and measurements were conducted.

[2] = Pharmacokinetic test of MTX-containing microcapsules (Test 8); type: in vivo; settings: rabbit knee joint, 1 mg in terms of MTX (FIG. 11)
Method: The MTX-containing microcapsules obtained in Example 26 were suspended in the same injection-grade dispersion medium as that employed in Test 1. The resulting suspension was injected in a dose of 1 mg in terms of MTX into a knee joint of a rabbit, and the amount of MTX in the synovium and its peripheral tissue was measured periodically. As a control, MTX was dissolved in a phosphate buffer of pH 7.5 and the resulting solution was injected in a dose of 1 mg in terms of MTX.

Row | amount of DF in the synovium and its peripheral tissue [1] | amount of MTX in the synovium and its peripheral tissue [2] | Structure (SMILES)
1 | no existence of DF was observed |  | O=C(O)Cc1ccccc1Nc1c(Cl)cccc1Cl [diclofenac sodium]
2 |  | no existence of MTX was observed | CN(Cc1cnc2nc(N)nc(N)c2n1)c1ccc(C(=O)N[C@@H](CCC(=O)O)C(=O)O)cc1 [solution of MTX in the phosphate buffer, Methotrexate]
